Measurements from patent US20240400512A1, “ANALOGS OF N,N,N-TRIMETHYL-4-PHOSPHORYLOXYTRYPTAMINE” (Terran Biosciences Inc., priority 2021, published 2024).

Test: Metabolic stability in human liver microsomes
Assay type: in vitro ADME
Conditions: for in vitro clearance compared with 4-OH-Trimethyltryptamine iodide (reference compound A) / in vitro clearance compared with 4-OH-Dimethylethyltryptamine iodide (reference compound B) / half-life and intrinsic clearance compared to the respective reference compounds: based on Table 2; for half-life at 0.25 μM / microsomal CLint at 0.25 μM: pH 7.4, NADPH; for half-life at 0.25 μM / microsomal CLint at 0.25 μM / CLint (μL/min/mg protein) / t1/2: 37° C.; for microsomal CLint at 0.25 μM: read-out: CLint (μL/min/mg protein); for Minus cofactor control (% of 0 min): incubation without cofactor, comment: possible chemical instability or non-cofactor dependent enzymatic degradation; for CLint (μL/min/mg protein) / t1/2: NADPH
Description: Microsomal Assay: Human liver microsomes (20 mg/mL) are obtained. B-nicotinamide adenine dinucleotide phosphate, reduced form (NADPH), magnesium chloride (MgCl2), and dimethyl sulfoxide (DMSO) are purchased from Sigma-Aldrich.
Determination of Metabolic Stability: 7.5 mM stock solutions of test compounds are prepared in DMSO. […] The diluted microsomes are added to wells of a 96-well deep-well polypropylene plate in triplicate. […] Reactions are initiated by addition of pre-warmed NADPH solution. The final reaction volume is 0.5 mL and contains 4.0 mg/mL human liver microsomes, 0.25 μM test compound, 2 mM NADPH in 0.1 M potassium phosphate buffer, pH 7.4, and 3 mM MgCl2. The reaction mixtures are incubated at 37° C., and 50 pL aliquots are removed at 0, 5, 10, 20, and 30 min or other suitable interval and added to shallow-well 96-well plates containing 50 pL of ice-cold CAN (acetonitrile) with internal standard to stop the reactions. The plates are stored at 4° C. for 20 minutes after which 100 pL of water is added to the wells of the plate before centrifugation to pellet precipitated proteins. Supernatants are transferred to another 96-well plate and analysed for amounts of the test compound remaining by LC-MS/MS using, for example, an Applied Bio-systems API 4000®) mass spectrometer. The same procedure is followed for the non-deuterated counterparts of the test compounds and for the positive control, 7-ethoxy coumarin (1 μM). Testing can be done in triplicate.
Data analysis: The in vitro T1/2s for the test compounds is calculated from the slopes of the linear regression of % test compound remaining (In) vs incubation time.
where k=−[slope of linear regression of % parent remaining (In) vs incubation time. The apparent intrinsic clearance is calculated using the following equation: […]
Data analysis can be performed using Microsoft Excel® Software.

[2H]C([2H])(c1c[nH]c2cccc(O)c12)C([2H])([2H])[N+](C)(C)C.[I-] [Compound 1, 4-Hydroxy-3-(2-(trimethyl-λ^4-azaneyl)ethyl-1,1,2,2-d4)-1H-indole iodide]
in vitro clearance compared with 4-OH-Trimethyltryptamine iodide (reference compound A): significantly lower in vitro clearance
half-life at 0.25 μM: 4.12 h
microsomal CLint at 0.25 μM: 5.6 µL/min/mg

[2H]C([2H])(c1c[nH]c2cccc(O)c12)C([2H])([2H])[N+](C)(C)CC.[I-] [Compound 2, 3-(2-(Ethyldimethyl-λ^4-azaneyl)ethyl-1,1,2,2-d4)-4-hydroxy-1H-indole iodide]
in vitro clearance compared with 4-OH-Dimethylethyltryptamine iodide (reference compound B): significantly lower in vitro clearance
half-life at 0.25 μM: 8.23 h
microsomal CLint at 0.25 μM: 2.81 µL/min/mg

[2H]C([2H])(c1c[nH]c2cccc(O)c12)C([2H])([2H])[N+](C)(C)CCC.[I-] [Compound 3, 3-(2-(Dimethyl(propyl)-λ^4-azaneyl)ethyl-1,1,2,2-d4)-4-hydroxy-1H-indole iodide]
half-life at 0.25 μM: 16.2 h
microsomal CLint at 0.25 μM: 1.42 µL/min/mg

[2H]C([2H])(c1c[nH]c2cccc(O)c12)C([2H])([2H])[N+](C([2H])([2H])[2H])(C([2H])([2H])[2H])C([2H])([2H])[2H].[I-] [Compound 4, 4-Hydroxy-3-(2-(tris(methyl-d3)-λ^4-azaneyl)ethyl-1,1,2,2-d4)-1H-indole iodide]
in vitro clearance compared with 4-OH-Trimethyltryptamine iodide (reference compound A): significantly lower in vitro clearance
half-life at 0.25 μM: 57.7 h
microsomal CLint at 0.25 μM: 0.401 µL/min/mg

[2H]C([2H])(c1c[nH]c2cccc(O)c12)C([2H])([2H])[N+](C)(C([2H])([2H])[2H])C([2H])([2H])[2H].[I-] [Compound 5, 4-Hydroxy-3-(2-(methylbis(methyl-d3)-λ^4-azaneyl)ethyl-1,1,2,2-d4)-1H-indole iodide]
in vitro clearance compared with 4-OH-Trimethyltryptamine iodide (reference compound A): significantly lower in vitro clearance
half-life at 0.25 μM: 101 h
microsomal CLint at 0.25 μM: 0.228 µL/min/mg

[2H]C([2H])(c1c[nH]c2cccc(O)c12)C([2H])([2H])[N+](CC)(C([2H])([2H])[2H])C([2H])([2H])[2H].[I-] [Compound 6, 3-(2-(Ethylbis(methyl-d3)-λ^4-azaneyl)ethyl-1,1,2,2-d4)-4-hydroxy-1H-indole iodide]
in vitro clearance compared with 4-OH-Dimethylethyltryptamine iodide (reference compound B): significantly lower in vitro clearance
half-life at 0.25 μM: 5.28 h
microsomal CLint at 0.25 μM: 4.38 µL/min/mg

[2H]C([2H])(c1c[nH]c2cccc(OC(C)=O)c12)C([2H])([2H])[N+](C)(C)C.[I-] [Compound 7, 4-Acetoxy-3-(2-(trimethyl-λ^4-azaneyl)ethyl-1,1,2,2-d4)-1H-indole iodide]
half-life and intrinsic clearance compared to the respective reference compounds: exhibit differences in half-life and intrinsic clearance
Minus cofactor control (% of 0 min): Minus cofactor control low (52% of 0 min).
half-life at 0.25 μM: 0.778 h
microsomal CLint at 0.25 μM: 29.7 µL/min/mg

[2H]C([2H])(c1c[nH]c2cccc(OC(C)=O)c12)C([2H])([2H])[N+](C)(C)CC.[I-] [Compound 8, 4-Acetoxy-3-(2-(ethyldimethyl-λ^4-azaneyl)ethyl-1,1,2,2-d4)-1H-indole iodide]
half-life and intrinsic clearance compared to the respective reference compounds: exhibit differences in half-life and intrinsic clearance
Minus cofactor control (% of 0 min): Minus cofactor control low (37% of 0 min).
half-life at 0.25 μM: 0.477 h
microsomal CLint at 0.25 μM: 48.4 µL/min/mg

[2H]C([2H])(c1c[nH]c2cccc(OC(C)=O)c12)C([2H])([2H])[N+](C)(C)CCC.[I-] [Compound 9, 4-Acetoxy-3-(2-(dimethyl(propyl)-λ^4-azaneyl)ethyl-1,1,2,2-d4)-1H-indole iodide]
half-life and intrinsic clearance compared to the respective reference compounds: exhibit differences in half-life and intrinsic clearance
Minus cofactor control (% of 0 min): Minus cofactor control low (20% of 0 min).
half-life at 0.25 μM: 0.312 h
microsomal CLint at 0.25 μM: 74.3 µL/min/mg

[2H]C([2H])(c1c[nH]c2cccc(OC(C)=O)c12)C([2H])([2H])[N+](C([2H])([2H])[2H])(C([2H])([2H])[2H])C([2H])([2H])[2H].[I-] [Compound 10, 4-Acetoxy-3-(2-(tris(methyl-d3)-λ^4-azaneyl)ethyl-1,1,2,2-d4)-1H-indole iodide]
half-life and intrinsic clearance compared to the respective reference compounds: exhibit differences in half-life and intrinsic clearance
Minus cofactor control (% of 0 min): Minus cofactor control low (44% of 0 min).
half-life at 0.25 μM: 0.775 h
microsomal CLint at 0.25 μM: 29.8 µL/min/mg

[2H]C([2H])(c1c[nH]c2cccc(OC(C)=O)c12)C([2H])([2H])[N+](C)(C([2H])([2H])[2H])C([2H])([2H])[2H].[I-] [Compound 11, 4-Acetoxy-3-(2-(methylbis(methyl-d3)-λ^4-azaneyl)ethyl-1,1,2,2-d4)-1H-indole iodide]
half-life and intrinsic clearance compared to the respective reference compounds: exhibit differences in half-life and intrinsic clearance
Minus cofactor control (% of 0 min): Minus cofactor control low (51% of 0 min).
half-life at 0.25 μM: 0.797 h
microsomal CLint at 0.25 μM: 29 µL/min/mg

[2H]C([2H])(c1c[nH]c2cccc(OC(C)=O)c12)C([2H])([2H])[N+](CC)(C([2H])([2H])[2H])C([2H])([2H])[2H].[I-] [Compound 12, 4-Acetoxy-3-(2-(ethylbis(methyl-d3)-λ^4-azaneyl)ethyl-1,1,2,2-d4)-1H-indole iodide]
half-life and intrinsic clearance compared to the respective reference compounds: exhibit differences in half-life and intrinsic clearance
Minus cofactor control (% of 0 min): Minus cofactor control low (40% of 0 min).
half-life at 0.25 μM: 0.558 h
microsomal CLint at 0.25 μM: 41.4 µL/min/mg

COc1ccc2c(c1)[C@]13CCCC[C@@H]1[C@H](C2)N(C)CC3 [dextromethorphan, reference compound]
CLint (μL/min/mg protein): 54.9 μL/min/mg protein
t1/2: 25.3 min

C[N+](C)(C)CCc1c[nH]c2cccc(O)c12.[I-] [reference compound A, 4-OH-Trimethyltryptamine iodide, reference compound]
CLint (μL/min/mg protein): 6.81 μL/min/mg protein
t1/2: 204 min

CC[N+](C)(C)CCc1c[nH]c2cccc(O)c12.[I-] [reference compound B, 4-OH-Dimethylethyltryptamine iodide, reference compound]
CLint (μL/min/mg protein): 5.41 μL/min/mg protein
t1/2: 256 min

CC(=O)Oc1cccc2[nH]cc(CC[N+](C)(C)C)c12.[I-] [reference compound D, 4-OAc-Trimethyltryptamine iodide, reference compound]
CLint (μL/min/mg protein): 28.3 μL/min/mg protein
t1/2: 48.9 min
Minus cofactor control (% of 0 min): Minus cofactor control low (51% of 0 min).

CC[N+](C)(C)CCc1c[nH]c2cccc(OC(C)=O)c12.[I-] [reference compound E, 4-OAc-Dimethylethyltryptamine iodide, reference compound]
CLint (μL/min/mg protein): 46.4 μL/min/mg protein
t1/2: 29.9 min
Minus cofactor control (% of 0 min): Minus cofactor control low (38% of 0 min).

CCC[N+](C)(C)CCc1c[nH]c2cccc(OC(C)=O)c12.[I-] [reference compound F, 4-OAc-Dimethylpropyltryptamine iodide, reference compound]
CLint (μL/min/mg protein): 62.7 μL/min/mg protein
t1/2: 22.1 min
Minus cofactor control (% of 0 min): Minus cofactor control low (27% of 0 min).
